Assay results as given in patent US11260118B2, “Immunogenic peptide composition” (Cancer Research Malaysia, priority 2017, dated 2022).
Where no end group is shown, it is not given here.

Assays:
[1] = tested on: mouse macrophage cell line RAW264.7
[2] = tested on: target cells 195M (MAGED4B) and C666.1F (FJX1)
Procedure: The cytotoxic ELISPOT assay was used to study the response of peptide-pulsed CTLs derived from the patients to target cell lines overexpressing the target antigens. CTLs were co-cultured with target cells, where this culture was re-suspended in complete culture media supplemented with IL-7 and interleukin 2 (IL-2) proteins and applied to IFNγ and granzyme B ELISPOT plates. The cell suspension was further incubated to allow the interaction between CTLs and target cell line before determining the potential killing ability of CTLs against FJX1 and MAGED4b expressing target cells.
Dendritic cells from patients were isolated and subsequently used as antigen presenting cells. Briefly, PBMCs were re-suspended in macrophage-serum free media (M-SFM) (Gibco, Thermo Fisher, MA, USA), seeded in a 6-well plate and incubated for 1 hour at 37° C. After incubation, non-adherent cells from PBMCs were collected, rinsed in HBSS and then re-suspended in complete culture media contained 10 ng/ml IL-7. Approximately 2-5×10^5 cells per well were seeded into round bottom 96-well plates. Cells were then incubated for 2-5 days at 37° C. for T cell expansion with the addition of 50 μg/ml of peptides. The adherent cells resulting from the incubation, were cultured at 37° C. for 2-5 days in M-SFM in the presence of 100 ng/ml GM-CSF and 25 ng/ml IL-4 to induce differentiation of dendritic cells (DCs). […]

[3] = tested on: HNSCC; conditions: cited from earlier work
[4] = tested on: recurrent or metastatic HNSCC; conditions: human, in vivo; cited from earlier work

In the case of RLSLLLVIL [M6], the “degree of inflammation / iNOS accumulation” value [1] is reported as “low”.
In the case of SLYNTYATL [HIV peptide], the “IFNγ and granzyme B secretion / cytotoxic T cell response after in vitro peptide stimulation” value [2] is reported as “induces increased levels of IFNγ and Granzyme B secretion”.
In the case of WLLALGSLLAL [F1, WLLALGSLLAL], the “degree of inflammation / iNOS accumulation” value [1] is reported as “low” and the “production of nitrite, fold lower than LPS positive control” value [1] is reported as 10 fold.
In the case of nivolumab, the “overall survival rate of HNSCC patients” value ([3]; 16% in standard therapy group) is given as 36%, the “grade 3 or grade 4 events versus standard therapy” value ([3]; human, in vivo) is given as “fewer grade 3 or grade 4 events” and the “response rate of HNSCC patients” value ([3]; human, in vivo) is given as 13%. The “survival longer than standard therapy group” value ([3]; human, in vivo) was 2.4 months.
In the case of pembrolizumab, the “objective response rate (complete or partial response of tumour size reduction)” value [4] is listed as 16%.
